How the values were obtained:
Type in all cases: cell-based, human
[1] = test system: p-ERK in AGS cells containing the KRAS G12D mutation; assay: Cell p-ERK assay (HTRF, Advance ERK phospho-T202/Y204 kit); conditions: 3 hours incubation with compound
Method: AGS was purchased from ATCC; catalog No: CRL-1739; F12K was purchased from Gibco; catalog No: 21127-022; FBS was purchased from Gibco; catalog No: 10099-141C; trypsin (containing EDTA) was purchased from Gibco; catalog No: 25200-072; DMSO was purchased from VWRAMMESCO; catalog No: 0231-500ML; 96-well cell culture plates were purchased from Corning; catalog No: 3599; opaque 96-well plates with a white background were purchased from Cisbio; catalog No: 66PL96025; Advance ERK phospho-T202/Y204 kit was purchased from Cisbio; catalog No: 64AERPEH; cell counters were purchased from CHEMOMETEC; model No: NC-200; microplate reader was purchased from PerkinElmer; model No: Envison.
AGS is an endogenous human gastric adenocarcinoma cell line containing the KRAS^G12D mutation, cultured in F12K+10% FBS medium. On the first day of the experiment, cells in the logarithmic growth phase were taken, digested with trypsin (containing EDTA), collected, and counted. Approximately 20000 cells/well were seeded in a 96-well cell culture plate and cultured overnight in an incubator with 5% CO2. 1000× stock solutions of compounds at a 3.16-fold concentration gradient were prepared using DMSO, and diluted 200-fold into a 5× compound stock solution using the medium described above. The 5× compound stock solution was added to each cell culturing well the day after cell seeding at a final concentration of 1× and a DMSO content of 0.1%. DMSO was used as an experimental control. After the compound was added and the incubation was kept for 3 hours, the medium in the culture wells was removed. 50 μl of Cell lysis solution (from Advance ERK phospho-T202/Y204 kit, the same below) was added to each well, mixed well, and incubated for 30 minutes and then 16 μl of the mixed solution was transferred to an opaque 96-well plate with a white background. In addition, 16 μl of cell lysis solution was added to a well as a blank well. After transferring, 4 μl of p-ERK HTRF antibody mixture (from Advance ERK phospho-T202/Y204 kit) was added to each well. After incubation for 4 hours, HTRF fluorescence value (RLU) was read by a microplate reader, and p-ERK level inhibition rate (IR (%)=(RLU control−RLU compound)/(RLU control−RLU blank)×100%) of the compounds was calculated. The concentration of the compounds and corresponding cell p-ERK level inhibition rate were fitted using Prism 8 four-parameters method, and the IC50 value was calculated.

AGS cells (KRAS G12D) = assay: Cell proliferation inhibition assay, 3D cell model (CellTiter-Glo 3D), AGS; conditions: AGS 3D sphere plate, 5 days incubation
Text: (§1) AsPC-1 was purchased from ATCC; catalog No: CRL-1682; AGS was purchased from ATCC; catalog No: CRL-1739; RPMI1640 was purchased from Gibco; catalog No: 11875-093 2235123; F12K was purchased from Gibco; catalog No: 21127-022; FBS was purchased from Gibco; catalog No: 10099-141C; trypsin (containing EDTA) was purchased from Gibco; catalog No: 25200-072; CellTiter Glo-3D was purchased from Progema; catalog No: G9683; 384-well sphere plates were purchased from Corning; catalog No: 3830; opaque 384-well plates with a white background were purchased from Corning; catalog No: 3570; cell counters were purchased from CHEMOMETEC; model: NC-200; microplate reader was purchased from PerkinElmer; model: Envison;
(§2) AsPC-1 is an endogenous human pancreatic cancer cell containing KRAS^G12D mutation, cultured in RPMI-1640 medium containing 10% FBS; AGS is a human gastric cancer cell line containing KRAS^G12D, cultured in F-12K medium containing 10% FBS. Cells in the logarithmic growth phase were taken, digested with trypsin (containing EDTA), collected, and counted. 800 AsPC-1 cells/well or 400 AGS cells/well, respectively, were seeded in a 384-well sphere plate and cultured overnight at 5% CO2 to establish a 3D cell model. 1000× stock solutions of compounds at a 3.16-fold concentration gradient of were prepared using DMSO, diluted 100-fold into a 10× compound stock solution using the medium described above. The 10× compound stock solution was added to each cell on 2nd day after cell seeding at a final concentration of 1× and a DMSO content of 0.1%. DMSO was used as an experimental control, and the medium was used as blank. After the addition of the compounds, the cells were incubated for 5 days. 30 μl of CellTiter-Glo work solution was added to each well, mixed well, and incubated for 30 minutes. After standing at room temperature for 30 minutes, 40 μl of the mixed solution was transferred to an opaque 384-well plate with a white clear bottom. Luminescence chemiluminescence value was read by a microplate reader, and the cell proliferation inhibition rate (IR (%)=(RLU control−RLU compound)/(RLU control−RLU blank)×100%) was calculated. The gradiently diluted concentration of the compounds and corresponding cell proliferation inhibition rate were fitted using XLFit four-parameters method, and the IC50 value was calculated.

AsPC-1 cells (KRAS G12D) = assay: Cell proliferation inhibition assay, 3D cell model (CellTiter-Glo 3D), AsPC-1; conditions: AsPC-1 3D sphere plate, 5 days incubation
Text: as §1, §2

With `C#Cc1c(F)ccc2cc(O)cc(-c3nc4c5c(nc(OC[C@@]67CCCN6C[C@H](F)C7)nc5c3F)N3C[C@H]5CC[C@H](N5)[C@H]3CO4)c12` [Z131-1] the IC50 ([1]; Homo sapiens) was 0.00158 µM, the IC50 (AGS cells (KRAS G12D); Homo sapiens, 120 h) was 0.00253 µM and the IC50 (AsPC-1 cells (KRAS G12D); Homo sapiens, ASPC1, 120 h) was 0.0328 µM.
`CCc1cccc2cc(O)cc(-c3nc4c5c(nc(OC[C@@]67CCCN6C[C@H](F)C7)nc5c3F)N3C[C@H]5CC[C@H](N5)[C@H]3CO4)c12` [Z140-1, 5-ethyl-4-((5aS,6S,9R)-1-fluoro-12-(((2R,7aS)-2-fluorotetrahydro-1H-pyrrolizin-7a(5H)-yl)methoxy)-5a,6,7,8,9,10-hexahydro-5H-4-oxa-3,10a,11,13,14-pentaaza-6,9-methanonaphtho[1,8-ab]hepten-2-yl)naphthalen-2-ol] gave an IC50 [1] of 0.00285 µM, an IC50 (AGS cells (KRAS G12D)) of 0.004 µM and an IC50 (AsPC-1 cells (KRAS G12D)) of 0.0211 µM.
Work on `CCc1cccc2cc(O)cc(-c3cc4nc(OC[C@@]56CCCN5C[C@H](F)C6)nc5c4c(c3Cl)OC[C@@H]3[C@@H]4CC[C@H](CN53)N4)c12` [Z381, 4-((5aS,6S,9R)-3-chloro-13-((2R,7aS)-2-fluorotetrahydro-1H-pyrrolizin-7a(5H)-ylmethoxy)-5a,6,7,8,9,10-hexahydro-5H-6,9-epiminoazepino[2′,1′:3,4][1, 4]oxazepino[5,6,7-de]quinazolin-2-yl)-5-ethylnaphthalen-2-ol] yielded an IC50 ([1]; Homo sapiens) of 0.436 µM.
Work on `CCc1cccc2cc(O)cc(-c3cc4nc(OC[C@@]56CCCN5C[C@H](F)C6)nc5c4c(n3)OC[C@@H]3[C@@H]4CC[C@H](CN53)N4)c12` [Z2, 5-ethyl-4-((5aS,6S,9R)-12-(((2R,7aS)-2-fluorotetrahydro-1H-pyrrolizin-7a(5H)-yl)methoxy)-5a,6,7,8,9,10-hexahydro-5H-4-oxa-3,10a,11,13,14-pentaaza-6,9-methanonaphtho[1,8-ab]hepten-2-yl)naphthalen-2-ol] yielded an IC50 ([1]; Homo sapiens) of 0.0106 µM, an IC50 (AGS cells (KRAS G12D); Homo sapiens, 120 h) of 0.0103 µM and an IC50 (AsPC-1 cells (KRAS G12D); Homo sapiens, ASPC1, 120 h) of 0.127 µM.
`C#Cc1cccc2cccc(-c3nc4c5c(nc(OC[C@@]67CCCN6C[C@H](F)C7)nc5c3F)N3C[C@H]5CC[C@H](N5)[C@H]3CO4)c12` [Z350, (5aS,6S,9R)-2-(8-ethynaphthalen-1-yl)-1-fluoro-12-(((2R,7aS)-2-fluorotetrahydro-1H-pyrrolizin-7a(5H)-yl)methoxy)-5a,6,7,8,9,10-hexahydro-5H-4-oxo-3,10a,11,13,14-pentaaza-6,9-methanonaphtho[1,8-ab]heptene] showed an IC50 ([1]; Homo sapiens) of 0.047 µM, an IC50 (AGS cells (KRAS G12D); Homo sapiens, 120 h) of 0.181 µM and an IC50 (AsPC-1 cells (KRAS G12D); Homo sapiens, ASPC1, 120 h) of 0.203 µM.
